# Entries after “also recorded” stand apart in the source; their conditions may differ. Structures can show the parent of a compound that is named as a salt.
# Assays:
# mice [1] = test: Traction test (mice), myorelaxant activity; format: in vivo; settings: Mus musculus, po, read-out: Traction, 50% effective dose
# From the text: This consists in observing when the treated animals are capable of retrieving a rod grasped by the front paws only. Inability to carry this out was interpreted as a sign of myorelaxant activity.
# mice [2] = test: Balance test: rotating rod (mice) (Equilibration); format: in vivo; settings: Mus musculus, po, read-out: Equilibration, 50% effective dose
# From the text: 2. Balance test: rotating rod (mice)
# This test consists in observing whether the treated animals are capable of maintaining their balance on a horizontal rod kept in rotation.
# Numerous neuroleptic compounds or tranquilizers disturb the equilibration reflex.
# mice [3] = test: Anti-convulsant activity (anti-pentetrazole) (mice); format: in vivo; settings: mouse, PO; pentetrazole 125 mg./kg. IP; read-out: Anti-pentetrazole, 50% effective dose
# Description: 3. Anti-convulsant activity (anti-pentetrazole) (mice)
# Pentetrazole, injected intraperitoneally in a dose of 125 mg./kg. produces fatal convulsions in 100% of the animals.
# Certain compounds exert a protective action preventing convulsions and permitting survival.
# mice [4] = test: Anti-convulsant activity (electric shock) (mice); format: in vivo; settings: Mus musculus, po, read-out: Electric shock, 50% effective dose
# From the text: 4. Anti-convulsant activity (electric shock) (mice)
# The test consists in determining the intensity of the electric current required to produce a fatal shock in a batch of test animals.
# Certain preventively administered compounds effectively protect a certain percentage of animals subjected to an electric current of an intensity which is fatal to untreated animals.
# mice [5] = test: Exploration test (mice); format: in vivo; settings: Mus musculus, read-out: Exploration, 50% effective dose
# Description: 5. Exploration test (mice)
# This extremely simple test consists in placing a mouse at the center of a floor pierced with holes and in noting how many holes the mouse explores in 5 minutes. This test is carried out in a room in which complete silence is observed and which contains no person except the experimenter who is seated and still. It appeals to the curiosity of the animals. The doses of the compounds employed are, however, very small and considerably less than those required to impair movement. This simple test makes it possible to observe whether the compounds assayed produce a more or less pronounced lack of interest in the environment and it gives information which is interesting from the clinical point of view with regard to the treatment of anxiety and restlessness.
# rat [6] = test: Spontaneous motor activity in the rat; format: in vivo; settings: Rattus norvegicus, po, read-out: Spontaneous motor activity, 50% effective dose
# From the text: (§1) 6. Spontaneous motor activity in the rat and mouse and provoked motor activity
# (§2) The effect of drugs on voluntary movements of animals can be studied statistically by methods, the details of which will not be discussed here. The mouse, which is an extremely lively animal and moves about a great deal, is particularly suitable for this type of experiment.
# mouse [7] = test: Spontaneous motor activity in the mouse; format: in vivo; settings: Mus musculus, po, read-out: Spontaneous motor activity, 50% effective dose
# From the text: as §1, §2
# rat [8] = test: Benzedrine provoked motor activity (R); format: in vivo; settings: PO, read-out: Benzedrine provoked motor activity, 50% effective dose
# From the text: as §1, §2
# (§3) Moreover, this spontaneous mobility can be exacerbated by preventive administration to the animals of certain substances such as benzedrine, mescaline and ritaline.
# (§4) The experimental results obtained by these methods give valuable information for clinical purposes with regard to the treatment of ambulatory psychomotor crises.
# Acute toxicity (M) LD 50 = settings: in vivo, mouse
# mouse [9] = test: Antistrychnine activity; format: in vivo; settings: po, read-out: Anti-strychnine, 50% effective dose
# From the text: 7. Antistrychnine activity
# cat = test: Morphine crisis (C); format: in vivo; settings: Felis catus, SC, read-out: Morphine crisis, 50% effective dose
# From the text: In the cat, morphine produces a specific state of excitation with hallucinations which can be attenuated or suppressed by certain psycholeptic drugs.
# cats = test: Aggressiveness (cat/mouse); format: in vivo; settings: Felis catus, SC, read-out: Aggressiveness, 50% effective dose
# From the text: 9. Aggressiveness (cat/mouse)
# In general, 75 to 80% of cats are aggressive when confronted with white mice. Psycholeptics and tranquilizers may make the cat indifferent and sometimes even amiable to the mouse. Similarly, in the case of cats that are furious and aggressive in relation to humans, diminution or suppression of the instinctive fear and establishment of a climate of confidence are observed.
# male rat = test: Combativeness (rat); format: in vivo; settings: for ED50: rat, PO, read-out: Combativeness, 50% effective dose
# From the text: It is possible to make a male rat aggressive towards another male rat enclosed in the same cage by passing an electric current of more or less high voltage through the floor of the cage.
# This test, like the preceding one, can obviously give information of clinical value for the treatment of aggression diseases.
# [10] = Reaction (pH) of aqueous solution; format: physicochemical
# central nervous system = test: Pharmacodynamic / central nervous system tests taken together; format: in vivo
# From the text: A certain number of the compounds described in the present application have been studied with regard to their action on the central nervous system, as psycholeptics, myorrelaxants and tranquilizers. In addition, the acute toxicity has been determined for a number of these compounds.
# It has thereby been possible to make quantitative comparisons of the activity of the different compounds for the different tests employed.
# mouse [11] = test: Benzedrine provoked motor activity (M); format: in vivo; settings: PO, read-out: Benzedrine provoked motor activity, 50% effective dose
# From the text: as §1, §2, §3, §4
# mouse [12] = test: Morphine excitation (M); format: in vivo; settings: PO, read-out: Morphine excitation, 50% effective dose
# From the text: In the mouse, the action of morphine is different but also manifested by marked central excitation.
# mouse [13] = test: Potentiation of narcosis (M); format: in vivo; settings: PO, read-out: Narcotic potentiation, 50% effective dose
# From the text: 12. Potentiation of narcosis
# Most psycholeptics are hypnotics in large doses, but many of them can, in small doses, without themselves producing any hypnosis, either prolong the time of sleep obtained with a true hypnotic (for example a barbiturate) or appreciably lower the dose of barbiturate required to obtain sleep.
structure (smiles),measurement,setting,value
"CCOC(=O)C1N=C(c2ccccc2)c2cc(Cl)ccc2NC1=O (stereo not drawn) [4279 CB, 7-Chloro-3-carbethoxy-5-phenyl-2-oxo-2,3-dihydro-1H-benzo[f]-1,4-diazepine]",ED50,mice [1],8 mg/kg
same,ED50,mice [2],50 mg/kg
same,ED50,mice [3],10 mg/kg
same,ED50,mice [4],25 mg/kg
same,ED50,mice [5]; po,25 mg/kg
same,ED50,rat [6],100 mg/kg
same,ED50,mouse [7],100 mg/kg
same,ED50,rat [8],> 100 mg/kg
"O=C(O)C1N=C(c2ccccc2)c2cc([N+](=O)[O-])ccc2NC1=O (stereo not drawn) [4336 CB, 3-[7-nitro-5-phenyl-2-oxo-2,3-dihydro-1H-benzo[f]-1,4-diazepine]-carboxylicacid, potassium salt]",LD50,Acute toxicity (M) LD 50; PO,800 mg/kg
same,ED50,mice [1],0.28 mg/kg
same,ED50,mice [2],1.5 mg/kg
same,ED50,mice [3],0.31 mg/kg
same,ED50,mice [4],3 mg/kg
same,ED50,mice [5]; po,6 mg/kg
same,ED50,rat [6],50 mg/kg
same,ED50,mouse [7],5 mg/kg
same,ED50,mouse [9],25 mg/kg
same,ED50,cat,25 mg/kg
same,ED50,cats,25 mg/kg
same,ED50,male rat,10 mg/kg
same,Effect in diminishing aggressiveness,male rat; test for combativeness,marked effect in diminishing aggressiveness
same,Reaction / pH of aqueous solution,[10],practically neutral solution
same,"Activity in different tests, especially as myorelaxants and anticonvulsants",central nervous system; different tests of Table VI,extremely active in different tests
same,Effect on the faculties of displacement,central nervous system; in vivo,less effect on the faculties of displacement
same,Solubility in water,Solubility,dissolves in water
"O=C(O)C1N=C(c2ccccc2)c2ccccc2NC1=O.[K+].[K+].[OH-].[OH-] (stereo not drawn) [4337 CB, 2,3-Dihydro-2-oxo-5-phenyl-1H-benzo[f]-1,4-diazepine-3-carboxylic acid, monopotassium salt, monopotassium hydroxide]",ED50,mice [1],5 mg/kg
same,ED50,mice [2],> 10 mg/kg
same,ED50,mice [3],> 10 mg/kg
same,ED50,mice [4],> 10 mg/kg
same,ED50,mice [5]; po,> 10 mg/kg
same,Reaction / pH of aqueous solution,[10],strongly alkaline in reaction
same,Solubility in water,Solubility,completely soluble in water
"O=C(O)C1N=C(c2ccccc2)c2ccccc2NC1=O (stereo not drawn) [4338 CB, 3-[5-Phenyl-2-oxo-2,3-dihydro-1H-benzo[f]-1,4-diazepine]-carboxylic acid, potassium salt]",ED50,mice [1],5 mg/kg
same,ED50,mice [2],> 10 mg/kg
same,ED50,mice [3],> 10 mg/kg
same,ED50,mice [4],> 10 mg/kg
same,ED50,mice [5]; route not given,> 10 mg/kg
same,ED50,mouse [7],10 mg/kg
same,Reaction / pH of aqueous solution,[10],substantially neutral reaction
same,Solubility in water,Solubility,dissolves in water
"Cc1ccc2c(c1)C(c1ccccc1)=NC(C(=O)O)C(=O)N2.[K+].[K+].[OH-].[OH-] (stereo not drawn) [4339 CB, 7-Methyl-2,3-dihydro-2-oxo-5-phenyl-1H-benzo[f]-1,4-diazepine-3-carboxylic acid, monopotassium salt, monopotassium hydroxide]",ED50,mice [1],> 10 mg/kg
same,ED50,mice [2],> 10 mg/kg
same,ED50,mice [3],> 10 mg/kg
same,ED50,mice [4],> 10 mg/kg
same,ED50,mouse [7],10 mg/kg
same,Solubility in water,Solubility,completely soluble in water
"NC(=O)C(N=C(c1ccccc1)c1cc(Cl)ccc1N)C(=O)O (stereo not drawn) [4349 CB, Potassium salt of 4-phenyl-4-(2-amino-5-chlorophenyl)-2-carbamoyl-3-aza-3-butenoic acid]",ED50,mice [1],10 mg/kg
same,ED50,mice [2],> 10 mg/kg
same,ED50,mice [3],> 10 mg/kg
same,ED50,mice [4],> 10 mg/kg
same,ED50,mice [5]; po,10 mg/kg
same,ED50,mouse [7],10 mg/kg
same,Solubility in water,Solubility,completely soluble in water
"CN1C(=O)C(C(=O)O)N=C(c2ccccc2)c2cc(Cl)ccc21.[K+].[K+].[OH-].[OH-] (stereo not drawn) [4350 CB, 7-Chloro-1-methyl-2,3-dihydro-2-oxo-5-phenyl-1H-benzo[f]-1,4-diazepine-3-carboxylic acid, monopotassium salt, monopotassium hydroxide]",ED50,mice [1],5 mg/kg
same,ED50,mice [2],> 10 mg/kg
same,ED50,mice [3],7.5 mg/kg
same,ED50,mice [4],20 mg/kg
same,ED50,mice [5]; po,10 mg/kg
same,ED50,mouse [7],> 20 mg/kg
same,Reaction / pH of aqueous solution,[10],strongly alkaline in reaction
same,Solubility in water,Solubility,very soluble in water; also recorded: completely soluble in water
"CCN(CC)CCNC(=O)C1N=C(c2ccccc2)c2cc(Cl)ccc2NC1=O (stereo not drawn) [4369 CB, 7-Chloro-3-(2-diethylamino-ethylaminocarbonyl)-5-phenyl-2-oxo-2,3-dihydro-1H-benzo[f]-1,4-diazepine]",ED50,mice [1],> 25 mg/kg
same,ED50,mice [2],> 50 mg/kg
same,ED50,mice [3],> 50 mg/kg
same,ED50,mice [4],> 20 mg/kg
same,ED50,mice [5]; po,> 20 mg/kg
same,ED50,mouse [7],> 10 mg/kg
"Nc1ccc2c(c1)C(c1ccccc1)=NC(C(=O)O)C(=O)N2.[K+].[K+].[OH-].[OH-] (stereo not drawn) [4371 CB, 7-Amino-2,3-dihydro-2-oxo-5-phenyl-1H-benzo[f]-1,4-diazepine-3-carboxylic acid, monopotassium salt, monopotassium hydroxide]",Reaction / pH of aqueous solution,[10],strongly alkaline reaction
same,Solubility in water,Solubility,completely soluble in water
"O=C(O)C1N=C(c2ccccc2)c2cc(Cl)ccc2NC1=O (stereo not drawn) [4372 CB, 7-Chloro-2,3-dihydro-2-oxo-5-phenyl-1H-benzo[f]-1,4-diazepine-3-carboxylic acid, calcium salt]",Solubility in water,Solubility,sparingly soluble in water
"Cc1ccc2c(c1)C(c1ccccc1)=NC(C(=O)O)C(=O)N2 (stereo not drawn) [4373 CB, 3-[7-methyl-5-phenyl-2-oxo-2,3-dihydro-1H-benzo[f]-1,4-diazepine]-carboxylic acid, potassium salt]",Solubility in water,Solubility,completely soluble in water
"CNC1=Nc2ccc(Cl)cc2C(c2ccccc2)=[N+]([O-])C1 [Chlordiazepoxide, reference compound]",LD50,Acute toxicity (M) LD 50; IP,80 mg/kg
same,LD50,Acute toxicity (M) LD 50; PO,200 mg/kg
same,ED50,mice [1],3 mg/kg
same,ED50,mice [2],13 mg/kg
same,ED50,mice [3],5 mg/kg
same,ED50,mice [4],17 mg/kg
same,ED50,mice [5]; po,20 mg/kg
same,ED50,rat [8],> 100 mg/kg
same,ED50,cat,100 mg/kg
same,ED50,male rat,100 mg/kg
"CN1C(=O)CN=C(c2ccccc2)c2cc(Cl)ccc21 [Diazepame, 7-Chloro-1-methyl-5-phenyl-2-oxo-2,3-dihydro-1H-benzo[f]-1,4-diazepine, reference compound]",ED50,mice [1],1.6 mg/kg
same,ED50,mice [2],4.4 mg/kg
same,ED50,mice [3],1.7 mg/kg
same,ED50,mice [4],5 mg/kg
same,ED50,mice [5]; po,6 mg/kg
same,ED50,rat [6],25 mg/kg
same,ED50,mouse [7],5 mg/kg
same,ED50,rat [8],100 mg/kg
same,ED50,mouse [11],> 20 mg/kg
same,ED50,mouse [9],> 50 mg/kg
same,ED50,mouse [12],25 mg/kg
same,ED50,cat,25 mg/kg
same,ED50,cats,25 mg/kg
same,ED50,male rat,25 mg/kg
same,ED50,mouse [13],2.5 mg/kg
